Literature values in patent publication US20250231185A1, “Coronavirus T Cell Epitopes, Megapools and Uses Thereof” (La Jolla Institute for Immunology, priority 2021, published 2025).
Read-outs that look alike come from different tables or passages of the source.

System: CD8+ T cells
Conditions: cited from earlier work
[1] = T cell subset (CD4 or CD8) recognizing the SARS-CoV-2-derived epitope
[2] = T cell type (CD4 or CD8) recognizing the SARS-CoV-2 epitope
[3] = SARS-CoV-2-derived CD8 epitopes, dominant = recognized by 3 or more donors/different studies
[4] = CD8R (D) megapool epitopes, dominant = recognized by 3 or more donors/different studies
[5] = CD8RE megapool peptides (non-spike SARS-CoV-2 antigens), dominant epitope Yes/No
[6] = SARS-CoV-2 Ag S, T cell type recognizing the epitope

Substance: 630 (TTYPGQGLNGY) [compound 630]
- Restriction [1]: CD8

Substance: 973 (IPTITQMNL) [compound 973]
- Restriction [2]: CD8

Substance: 504 (GTGPEAGLPY) [compound 504]
- Dominant [3]: Yes (more dominant epitopes are defined by being recognized by 3 or more donors/different studies)
- Restriction [1]: CD8

Substance: 1790 (SEFSSLPSY) [compound 1790]
- Dominant [4]: Yes (more dominant epitopes are defined by being recognized by 3 or more donors/different studies)

Substance: 3048 (KLFIRQEEV) [compound 3048]
- Dominant [5]: Yes (more dominant epitopes are defined by being recognized by 3 or more donors/different studies)

Substance: 694 (ASFDNFKFV) [compound 694]
- Restriction [1]: CD8

Substance: 639 (SLINTLNDL) [compound 639]
- Restriction [1]: CD8

Substance: 3021 (MPASWVMRI) [compound 3021]
- Dominant [5]: Yes (more dominant epitopes are defined by being recognized by 3 or more donors/different studies)

Substance: 954 (NLHSSRLSF) [compound 954]
- Restriction [2]: CD8

Substance: 1334 (YQDVNCTEV) [compound 1334]
- Restriction [6]: CD8

Substance: 960 (AISDYDYYR) [compound 960]
- Restriction [2]: CD8

Substance: 664 (YMSALNHTK) [compound 664]
- Restriction [1]: CD8

Substance: 1322 (FELLHAPATV) [compound 1322]
- Restriction [6]: CD8

Substance: 1759 (KLVNKFLAL) [compound 1759]
- Dominant [4]: Yes (more dominant epitopes are defined by being recognized by 3 or more donors/different studies)

Substance: 1318 (YQPYRVVVL) [compound 1318]
- Restriction [6]: CD8

Substance: 1712 (TVLSFCAFAV) [compound 1712]
- Dominant [4]: Yes (more dominant epitopes are defined by being recognized by 3 or more donors/different studies)

Substance: 1079 (FIERYKLEGY) [compound 1079]
- Restriction [2]: CD8

Substance: 2947 (TVLSFCAFAV) [compound 2947]
- Dominant [5]: Yes (more dominant epitopes are defined by being recognized by 3 or more donors/different studies)

Substance: 1016 (WEPEFYEAM) [compound 1016]
- Restriction [2]: CD8

Substance: 3050 (IMLIIFWFSL) [compound 3050]
- Dominant [5]: Yes (more dominant epitopes are defined by being recognized by 3 or more donors/different studies)

Substance: 583 (VTNNTFTLK) [compound 583]
- Dominant [3]: Yes (more dominant epitopes are defined by being recognized by 3 or more donors/different studies)
- Restriction [1]: CD8

Substance: 513 (NPANNAAIVL) [compound 513]
- Dominant [3]: Yes (more dominant epitopes are defined by being recognized by 3 or more donors/different studies)
- Restriction [1]: CD8

Substance: 1430 (GVVFLHVTY) [compound 1430]
- Restriction [6]: CD8

Substance: 1754 (GVAMPNLYK) [compound 1754]
- Dominant [4]: Yes (more dominant epitopes are defined by being recognized by 3 or more donors/different studies)

Substance: 1358 (IAIPTNFTI) [compound 1358]
- Restriction [6]: CD8

Substance: 952 (FVVSTGYHFR) [compound 952]
- Restriction [2]: CD8

Substance: 3043 (FTSDYYQLY) [compound 3043]
- Dominant [5]: Yes (more dominant epitopes are defined by being recognized by 3 or more donors/different studies)

Substance: 963 (YRYNLPTM) [compound 963]
- Restriction [2]: CD8

Substance: 2933 (KPRQKRTAT) [compound 2933]
- Dominant [5]: Yes (more dominant epitopes are defined by being recognized by 3 or more donors/different studies)

Substance: 999 (LYYQNNVFM) [compound 999]
- Restriction [2]: CD8

Substance: 2932 (QQQQGQTVTK) [compound 2932]
- Dominant [5]: Yes (more dominant epitopes are defined by being recognized by 3 or more donors/different studies)

Substance: 1329 (DAVRDPQTL) [compound 1329]
- Restriction [6]: CD8

Substance: 1769 (ILFTRFFYV) [compound 1769]
- Dominant [4]: Yes (more dominant epitopes are defined by being recognized by 3 or more donors/different studies)

Substance: 1765 (YLATALLTL) [compound 1765]
- Dominant [4]: Yes (more dominant epitopes are defined by being recognized by 3 or more donors/different studies)

Substance: 1669 (KLLEQWNLV) [compound 1669]
- Dominant [4]: Yes (more dominant epitopes are defined by being recognized by 3 or more donors/different studies)

Substance: 549 (AYKTFPPTEPK) [compound 549]
- Dominant [3]: Yes (more dominant epitopes are defined by being recognized by 3 or more donors/different studies)
- Restriction [1]: CD8

Substance: 3033 (YTELEPPCRF) [compound 3033]
- Dominant [5]: Yes (more dominant epitopes are defined by being recognized by 3 or more donors/different studies)

Substance: 1078 (KPRSQMEIDF) [compound 1078]
- Restriction [2]: CD8

Substance: 928 (YFVVKRHTF) [compound 928]
- Restriction [2]: CD8

Substance: 634 (AHAEETRKL) [compound 634]
- Restriction [1]: CD8

Substance: 631 (KQEILGTVSW) [compound 631]
- Restriction [1]: CD8

Substance: 1784 (SAFAMMFVK) [compound 1784]
- Dominant [4]: Yes (more dominant epitopes are defined by being recognized by 3 or more donors/different studies)

Substance: 1307 (KSNLKPFER) [compound 1307]
- Restriction [6]: CD8

Substance: 1779 (VRIQPGQTF) [compound 1779]
- Dominant [4]: Yes (more dominant epitopes are defined by being recognized by 3 or more donors/different studies)

Substance: 1774 (FSAVGNICY) [compound 1774]
- Dominant [4]: Yes (more dominant epitopes are defined by being recognized by 3 or more donors/different studies)

Substance: 1305 (YNYLYRLFR) [compound 1305]
- Restriction [6]: CD8

Substance: 925 (KVAGFAKFL) [compound 925]
- Restriction [2]: CD8

Substance: 651 (RTIKVFTTV) [compound 651]
- Restriction [1]: CD8

Substance: 1716 (LLMPILTLT) [compound 1716]
- Dominant [4]: Yes (more dominant epitopes are defined by being recognized by 3 or more donors/different studies)

Substance: 3007 (STFNVPMEK) [compound 3007]
- Dominant [5]: Yes (more dominant epitopes are defined by being recognized by 3 or more donors/different studies)

Substance: 1006 (YLPYPDPSRIL) [compound 1006]
- Restriction [2]: CD8

Substance: 679 (FTCASEYTGNY) [compound 679]
- Restriction [1]: CD8

Substance: 969 (ARLYYDSMSY) [compound 969]
- Restriction [2]: CD8

Substance: 1424 (FPQSAPHGV) [compound 1424]
- Restriction [6]: CD8

Substance: 1800 (MDLFMRIFTI) [compound 1800]
- Dominant [4]: Yes (more dominant epitopes are defined by being recognized by 3 or more donors/different studies)

Substance: 632 (QEILGTVSW) [compound 632]
- Dominant [3]: Yes (more dominant epitopes are defined by being recognized by 3 or more donors/different studies)
- Restriction [1]: CD8

Substance: 1320 (QPYRVVVLSF) [compound 1320]
- Restriction [6]: CD8

Substance: 621 (ESKPSVEQR) [compound 621]
- Restriction [1]: CD8

Substance: 515 (AEGSRGGSQA) [compound 515]
- Restriction [1]: CD8

Substance: 1325 (LVKNKCVNF) [compound 1325]
- Restriction [6]: CD8

Substance: 633 (MLAHAEETR) [compound 633]
- Restriction [1]: CD8

Substance: 1718 (FVDGVPFVV) [compound 1718]
- Dominant [4]: Yes (more dominant epitopes are defined by being recognized by 3 or more donors/different studies)

Substance: 1074 (TICAPLTVF) [compound 1074]
- Restriction [2]: CD8

Substance: 1667 (YVYSRVKNL) [compound 1667]
- Dominant [4]: Yes (more dominant epitopes are defined by being recognized by 3 or more donors/different studies)

Substance: 545 (TPSGTWLTY) [compound 545]
- Restriction [1]: CD8

Substance: 695 (KFADDLNQL) [compound 695]
- Restriction [1]: CD8

Substance: 2956 (VVDKYFDCY) [compound 2956]
- Dominant [5]: Yes (more dominant epitopes are defined by being recognized by 3 or more donors/different studies)

Substance: 3005 (YIFFASFYY) [compound 3005]
- Dominant [5]: Yes (more dominant epitopes are defined by being recognized by 3 or more donors/different studies)

Substance: 1679 (ATSRTLSYYK) [compound 1679]
- Dominant [4]: Yes (more dominant epitopes are defined by being recognized by 3 or more donors/different studies)

Substance: 536 (APSASAFFGM) [compound 536]
- Restriction [1]: CD8

Substance: 1444 (WFVTQRNFY) [compound 1444]
- Restriction [6]: CD8

Substance: 1735 (VYRGTTTYKL) [compound 1735]
- Dominant [4]: Yes (more dominant epitopes are defined by being recognized by 3 or more donors/different studies)

Substance: 1705 (MEVTPSGTWL) [compound 1705]
- Dominant [4]: Yes (more dominant epitopes are defined by being recognized by 3 or more donors/different studies)

Substance: 1017 (AMYTPHTVL) [compound 1017]
- Restriction [2]: CD8

Substance: 902 (TFTYASALW) [compound 902]
- Restriction [2]: CD8

Substance: 1762 (PTDNYITTY) [compound 1762]
- Dominant [4]: Yes (more dominant epitopes are defined by being recognized by 3 or more donors/different studies)

Substance: 636 (AIVSTIQRKYK) [compound 636]
- Restriction [1]: CD8

Substance: 1713 (DLKGKYVQI) [compound 1713]
- Dominant [4]: Yes (more dominant epitopes are defined by being recognized by 3 or more donors/different studies)

Substance: 2931 (LLLDRLNQL) [compound 2931]
- Dominant [5]: Yes (more dominant epitopes are defined by being recognized by 3 or more donors/different studies)

Substance: 1030 (APTLVPQEHYV) [compound 1030]
- Restriction [2]: CD8

Substance: 645 (YYTSNPTTFHL) [compound 645]
- Restriction [1]: CD8

Substance: 1672 (TLACFVLAAV) [compound 1672]
- Dominant [4]: Yes (more dominant epitopes are defined by being recognized by 3 or more donors/different studies)

Substance: 1724 (DTDFVNEFY) [compound 1724]
- Dominant [4]: Yes (more dominant epitopes are defined by being recognized by 3 or more donors/different studies)

Substance: 574 (RLIDAMMFT) [compound 574]
- Restriction [1]: CD8

Substance: 971 (FAYTKRNVI) [compound 971]
- Restriction [2]: CD8

Substance: 1048 (EEAIRHVRAW) [compound 1048]
- Restriction [2]: CD8

Substance: 1440 (VFVSNGTHWF) [compound 1440]
- Restriction [6]: CD8

Substance: 1040 (VVNARLRAK) [compound 1040]
- Restriction [2]: CD8
